# Assay results published in PubChem BioAssay (NCI).
#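 Compound exposure: 48 hours, 5 concentrations, 96-well plates. TGI denotes the concentration required for complete inhibition of growth.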
# Tests used:
# Assay in all cases: NCI-60 cell line screen, 48 h
# [1] = tested on: IGROV1 ovarian
# [2] = tested on: A549 NSCLC
# [3] = tested on: SW-620 colon
# [4] = tested on: RPMI-8226 leukemia
# [5] = tested on: MALME-3M melanoma
# [6] = tested on: SNB-75 CNS
# [7] = tested on: RXF 393 renal
# [8] = tested on: UACC-62 melanoma
# [9] = tested on: LOX IMVI melanoma
# [10] = tested on: HS 578T breast
Compound,TGI [1],TGI [2],TGI [3],TGI [4],TGI [5],TGI [6],TGI [7],TGI [8],TGI [9],TGI [10]
O=S(=O)(CCBr)CCBr,18.8 µM,27.8 µM,5.74 µM,12.1 µM,9.2 µM,25.5 µM,5.88 µM,11 µM,21.8 µM,
CCOC(=O)C1=CNC(C(=O)OCC)C1c1cccn1-c1ccc(Cl)cc1[N+](=O)[O-] (configuration not stated),29.9 µM,> 100 µM,> 100 µM,,,51.4 µM,36.7 µM,35 µM,29.4 µM,50.5 µM
COc1cc2c(cc1OC)C(C(CO)CO)N(CC(O)CCl)CC2 (configuration not stated),> 100 µM,> 100 µM,> 100 µM,> 100 µM,> 100 µM,> 100 µM,,> 100 µM,> 100 µM,
CCOC(=O)c1cc(-c2cc(OC)c(OC)c([N+](=O)[O-])c2)c([N+](=O)[O-])n1C,> 10 µM,> 10 µM,,,> 10 µM,> 10 µM,> 10 µM,> 10 µM,,> 10 µM
O=C(/C=C/c1ccc(O)cc1)c1ccc2c(c1)OCO2,28.9 µM,44.8 µM,42.9 µM,,> 100 µM,50.3 µM,38.7 µM,47.6 µM,47 µM,
O=C(O)c1cc2ccccc2c(N=Nc2ccc(S(=O)(=O)Nc3nccs3)cc2)c1O,> 100 µM,> 100 µM,> 100 µM,> 100 µM,> 100 µM,> 100 µM,> 100 µM,> 100 µM,,> 100 µM
O=C(NCCC1([N+](=O)[O-])CCN(C(=O)c2ccccc2)CC1)c1ccccc1,> 100 µM,> 100 µM,> 100 µM,> 100 µM,> 100 µM,,> 100 µM,> 100 µM,,> 100 µM
N#CC1=C(N)n2c(s/c(=C\c3ccc(Cl)cc3)c2=O)=C(c2nc3ccccc3[nH]2)C1c1ccc(Cl)cc1 (configuration not stated),9.71 µM,10.9 µM,3.03 µM,4.65 µM,4.74 µM,17.8 µM,,2.92 µM,3.23 µM,
COC(=O)CCC(=O)NC1=C(NCc2ccccc2)C(=O)c2ccccc2C1=O,53.7 µM,> 100 µM,59.2 µM,> 100 µM,,> 100 µM,> 100 µM,33.1 µM,77.2 µM,> 100 µM
COC(=O)/C=C\n1c(C)cc(=O)[nH]c1=O,> 100 µM,> 100 µM,> 100 µM,> 100 µM,> 100 µM,> 100 µM,> 100 µM,> 100 µM,,> 100 µM
O=C(c1ccccc1)N1CCN(C(=S)N(C(=O)c2ccccc2)c2ccccc2)C1=S,12.6 µM,19.1 µM,> 43.5 µM,,19.1 µM,6.56 µM,,11.4 µM,3.67 µM,> 27.1 µM
OC(c1cc2ccccc2o1)c1cc2ccccc2s1 (configuration not stated),> 10 µM,> 10 µM,> 10 µM,> 10 µM,,> 10 µM,> 10 µM,> 10 µM,> 10 µM,> 10 µM
O=C(/N=C/c1c(O)c2ccccc2oc1=O)Nc1ccccc1,> 100 µM,> 100 µM,> 100 µM,> 100 µM,94 µM,83.5 µM,91.8 µM,> 100 µM,> 100 µM,
CC[C@]12C=CCN3CC[C@@]4(c5cc(Br)c(OC)cc5N(C)[C@H]4[C@@](O)(C(=O)NN)[C@@H]1O)[C@@H]32,> 100 µM,> 100 µM,> 100 µM,,> 100 µM,43.6 µM,99.2 µM,> 100 µM,> 100 µM,> 100 µM
COC(=O)[C@@H]1[C@@H](c2cccc(Cl)c2)[C@H](C(=O)OC)C2(C[C@@]1(C)O)NCCS2 (some centres not stated),> 100 µM,> 100 µM,> 100 µM,,> 100 µM,> 100 µM,> 100 µM,> 100 µM,> 100 µM,> 100 µM
CCOC(=O)c1ccc(Nc2c3c(nc4ccccc24)CCCC3)cc1,> 100 µM,> 100 µM,> 100 µM,> 100 µM,,> 54.8 µM,> 100 µM,> 100 µM,> 100 µM,> 100 µM
Cc1c(Cl)c2ccccc2n1S(=O)(=O)c1ccccc1,> 100 µM,> 100 µM,> 100 µM,86 µM,> 100 µM,58 µM,,> 100 µM,,
COc1ccc(-c2cc(=O)c3cc4c(cc3[nH]2)OCO4)cc1OC,> 100 µM,> 100 µM,> 100 µM,> 100 µM,> 100 µM,> 100 µM,> 100 µM,> 100 µM,> 100 µM,
COC(=O)C1=C(C(=O)OC)C(C(=O)c2ccc(Br)cc2)N2N=C(c3ccc(Cl)cc3)C=CC12 (configuration not stated),> 100 µM,> 100 µM,> 100 µM,> 100 µM,> 100 µM,> 100 µM,,> 100 µM,> 100 µM,> 100 µM
Cc1c(Cl)nc(Nc2nc3ccccc3[nH]2)nc1Cl,> 100 µM,> 100 µM,> 100 µM,> 100 µM,> 100 µM,> 100 µM,> 100 µM,> 100 µM,,82 µM
O=S(=O)(O)c1cc(O)c2c(N=Cc3ccccc3O)cc(S(=O)(=O)O)cc2c1,> 100 µM,> 100 µM,> 100 µM,> 100 µM,> 100 µM,> 100 µM,> 100 µM,> 100 µM,> 100 µM,
CN(C)c1ccc(C(=C(c2ccc(N(C)C)cc2)c2ccc(N(C)C)cc2)c2ccc(N(C)C)cc2)cc1,34 µM,31.4 µM,20.8 µM,47.6 µM,32.6 µM,27.8 µM,25.2 µM,36.1 µM,31.2 µM,
CCCSc1ccc2[nH]c(N3C(=O)/C(=C/c4ccco4)N=C3c3ccccc3)cc2c1,> 50 µM,> 50 µM,> 50 µM,> 50 µM,> 50 µM,> 50 µM,> 50 µM,> 50 µM,> 50 µM,
